Experimental findings from patent US20250186456A1, “PYRIMIDINE-FUSED CYCLIC COMPOUND AND PREPARATION METHOD AND USE THEREOF” (Genfleet Therapeutics (Shanghai) Inc., priority 2021, published 2025) are described below.

Format in all cases: cell-based, human
Assay [1] concerns p-ERK in AGS cells (KRAS G12D mutation). The assay is described as follows: Cell p-ERK assay (HTRF, Advance ERK phospho-T202/Y204 kit). Particulars: AGS cells, 3 hours incubation with compound, HTRF, read-out: AGS p-ERK IC50. An outline of the steps:
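AGS cells (endogenous KRAS G12D) seeded at ~20000 cells/well overnight, then treated 3 h with 3.16-fold compound dilutions, 0.1% DMSO final. Lysates assayed for phospho-T202/Y204 ERK by HTRF after 4 h antibody incubation; inhibition vs DMSO and blank, IC50 by four-parameter fit.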
(In general: Time-resolved FRET reads energy transfer from a long-lived donor to a nearby acceptor.)

The next assay relates to AGS cells (KRAS G12D). Briefly: Cell proliferation inhibition assay, 3D, CellTiter-Glo 3D, AGS. Particulars: AGS 3D sphere model, 5 days incubation. In a few lines:
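Spheroids (800 AsPC-1 or 400 AGS cells/well; RPMI-1640 or F-12K with 10% FBS) formed overnight, then were dosed on day 2 with a 3.16-fold series at 0.1% DMSO. After 5 days, viability was read by CellTiter-Glo 3D luminescence, and IC50 came from four-parameter fits of inhibition versus DMSO control and medium blank.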
On the technique in general: Cellular ATP, detected with luciferase, serves as a proxy for viable cell number.

The test system of assay [2] is AsPC-1 cells (KRAS G12D mutation). The assay is described as follows: Cell proliferation inhibition assay, 3D, CellTiter-Glo 3D, AsPC-1. Particulars: AsPC-1 3D sphere model, 5 days incubation. An excerpt: AsPC-1 was purchased from ATCC; catalog No: CRL-1682; AGS was purchased from ATCC; catalog No: CRL-1739; RPMI1640 was purchased from Gibco; catalog No: 11875-093 2235123; F12K was purchased from Gibco; catalog No: 21127-022; FBS was purchased from Gibco; catalog No: 10099-141C; trypsin (containing EDTA) was purchased from Gibco; catalog No: 25200-072; CellTiter Glo-3D was purchased from Progema; catalog No: G9683; 384-well sphere plates were purchased from Corning; catalog No: 3830; white opaque 384-well plates were purchased from Corning; catalog No: 3570; cell counters were purchased from CHEMOMETEC; model: NC-200; microplate reader was purchased from PerkinElmer; model: Envison;
AsPC-1 is an endogenous human pancreatic cancer cell containing KRAS^G12D mutation, cultured in RPMI-1640 medium containing 10% FBS; AGS is a human gastric cancer cell line containing KRAS^G12D, cultured in F-12K medium containing 10% FBS. Cells in the logarithmic growth phase were taken, digested with trypsin (containing EDTA), collected, and counted. 800 AsPC-1 cells/well or 400 AGS cells/well, respectively, were seeded in a 384-well sphere plate and cultured overnight at 5% CO2 to establish a 3D cell model. 1000X stock solutions of compounds at a 3.16-fold concentration gradient of were prepared using DMSO, diluted 100-fold into a 10X compound stock solution using the medium described above. The 10X compound stock solution was added to each cell on 2nd day after cell seeding at a final concentration of 1X and a DMSO content of 0.1%. DMSO was used as a control in the experiment, and the medium was used as blank. After the addition of the compounds, the cells were incubated for 5 days. 30 μl of CellTiter-Glo work solution was added to each well, mixed well, and incubated for 30 minutes. After standing at room temperature for 30 minutes, 40 μl of the mixed solution was transferred to an opaque 384-well plate with a white clear bottom. Luminescence chemiluminescence value was read by a microplate reader, and the cell proliferation inhibition rate (IR (%)=(RLU control-RLU compound)/(RLU control-RLU blank)×100%) was calculated. The gradiently diluted concentration of the compounds and corresponding cell proliferation inhibition rate were fitted using XLFit four-parameters method, and the IC50 value was calculated. […] The results of some exemplary compounds are shown in Table 2 (“−” represents untested).

Structures are written as SMILES. pIC50: −log10 of the molar value. Where two headings read alike, the source gives them in different places.

As to `C#Cc1c(F)ccc2cccc(-c3nc4c5c(nc(OC[C@@]67CCCN6C[C@H](F)C7)nc5c3F)N3C[C@H]5CC[C@H](N5)[C@H]3[C@H](C)O4)c12` [Example Z632, (5S,5aS,6S,9R)-2-(8-Ethynyl-7-Fluoronaphthalen-1-Yl)-1-Fluoro-12-(((2R,7aS)-2-Fluorotetrahydro-1H-Pyrrolizin-7a (5H)-Yl)Methoxy)-5-Methyl-5a,6,7,8,9,10-Hexahydro-5H-4-Oxa-3,10a,11,13,14-Pentaaza-6,9-Methanonaphtho[1,8-Ab]Heptalene], the pIC50 (usually the IC50 on a negative log10 scale, so that one unit is a factor of ten) is 7.52 in assay [1] (Homo sapiens); 7.58 in the assay on AGS cells (KRAS G12D) (Homo sapiens, 120 h); 7.27 in assay [2] (Homo sapiens, ASPC1, 120 h).
On to `C#Cc1c(F)ccc2cccc(-c3nc4c5c(nc(OCC6(CN7CCC(O)C7)CC6)nc5c3F)N3C[C@H]5CC[C@H](N5)[C@H]3[C@H](C)O4)c12` (stereo partly drawn) [Example Z721], for which the pIC50 is 7.43 in assay [1], 7.36 with AGS cells (KRAS G12D) and 6.98 in assay [2].
Regarding `C=C1CCN2C[C@H](F)CC12COc1nc2c3c(nc(-c4cc(N)c(F)c5ccc(F)c(F)c45)c(F)c3n1)O[C@@H](C)[C@@H]1[C@@H]3CC[C@H](CN21)N3` (stereo partly drawn) [Example Z731, 1,5,6-trifluoro-4-((5S, 5aS,6S,9R)-1-fluoro-12-(((6R)-6-fluoro-1-methylenetetrahydro-1H-pyrrolizin-7a (5H)-yl)methoxy)-5-methyl-5a,6,7,8,9,10-hexahydro-5H-4-oxa-3,10a, 11,13,14-pentaaza-6,9-methanonaphtho[1,8-ab]heptalene-2-yl) naphthalen-2-amine], the pIC50 in assay [1] (Homo sapiens) is 8.80; in the assay on AGS cells (KRAS G12D) (Homo sapiens, 120 h) it was 8.24; in assay [2] (Homo sapiens, ASPC1, 120 h), 7.80.
Taken in the same sequence, the figures for `C#Cc1cccc2cncc(-c3nc4c5c(nc(OCC67CC(=C)CN6C[C@H](F)C7)nc5c3F)N3C[C@H]5CC[C@H](N5)[C@H]3[C@H](C)O4)c12` (stereo partly drawn) [Example Z684, (5S,5aS,6S,9R)-2-(5-ethynylisoquinolin-4-yl)-1-fluoro-12-(((2R)-2-fluoro-6-methylenetetrahydro-1H-pyrrolizin-7a (5H)-yl)methoxy)-5-methyl-5a,6,7,8,9,10-hexahydro-5H-4-oxa-3,10a, 11,13,14-pentaaza-6,9-methanonaphtho[1,8-ab]heptalene] were 7.24, 6.47 and 6.49.
Consider `C#Cc1c(F)ccc2cccc(-c3nc4c5c(nc(OC[C@@]67C[C@@H](F)CN6CCC7=C)nc5c3F)N3C[C@H]5CC[C@H](N5)[C@H]3[C@H](C)O4)c12` (single isomer, unassigned) [Example Z690], for which the pIC50 in assay [1] (Homo sapiens) is 7.78; with AGS cells (KRAS G12D) (Homo sapiens, 120 h), 7.50; in assay [2] (Homo sapiens, ASPC1, 120 h), 7.34.
In the same order, the values of `C#Cc1cccc2cccc(-c3nc4c5c(nc(OC[C@]67CCCN6CCC7=C)nc5c3F)N3C[C@H]5CC[C@H](N5)[C@H]3[C@H](C)O4)c12` [Example Z677, (5S,5aS,6S,9R)-2-(8-ethynylnaphthalen-1-yl)-1-fluoro-5-methyl-12-(((R)-1-methylenetetrahydro-1H-pyrrolizin-7a (5H)-yl)methoxy)-5a,6,7,8,9,10-hexahydro-5H-4-oxa-3,10a,11,13,14-pentaaza-6,9-methanonaphtho[1,8-ab]heptalene] are 6.73, 6.10 and 6.01.
In the same order, the values of `C#Cc1cccc2cc(N)cc(-c3nc4c5c(nc(OCC6(CO)CC6)nc5c3F)N3C[C@H]5CC[C@H](N5)[C@H]3[C@H](C)O4)c12` [Example Z701, (1-((((5S,5aS,6S,9R)-2-(3-amino-8-ethynylnaphthalen-1-yl)-1-fluoro-5-methyl-5a,6,7,8,9,10-hexahydro-5H-4-oxa-3,10a, 11,13,14-pentaaza-6,9-methanonaphtho[1,8-ab]heptalen-12-yl)oxy)methyl)cyclopropyl)methanol] are 7.40, 6.64 and 6.61.
In the same order, the values of `C#Cc1c(F)ccc2cccc(-c3nc4c5c(nc(OCC67CC(=C)CN6CCC7=C)nc5c3F)N3C[C@H]5CC[C@H](N5)[C@H]3[C@H](C)O4)c12` (stereo partly drawn) [Example Z610, (5S,5aS,6S,9R)-12-((1,6-dimethylenetetrahydro-1H-pyrrolizin-7a (5H)-yl)methoxy)-2-(8-ethynyl-7-fluoronaphthalen-1-yl)-1-fluoro-5-methyl-5a,6,7,8,9,10-hexahydro-5H-4-oxa-3,10a, 11,13,14-pentaaza-6,9-methanonaphtho[1,8-ab]heptalene] are 7.76, 7.73 and 7.37.
Turning to `C#Cc1c(F)ccc2cccc(-c3nc4c5c(nc(OCC67CC(=C)CN6CC(=C)C7)nc5c3F)N3C[C@H]5CC[C@H](N5)[C@H]3CCO4)c12` [Example Z629], the pIC50 in assay [1] (Homo sapiens) is 7.30; in the assay with AGS cells (KRAS G12D) (Homo sapiens, 120 h), 7.29; in assay [2] (Homo sapiens, ASPC1, 120 h) it was 6.78.
Regarding `C#Cc1c(F)ccc2cccc(-c3nc4c5c(nc(OC[C@]67CC(=C)CN6CC[C@@H]7OC)nc5c3F)N3C[C@H]5CC[C@H](N5)[C@H]3[C@H](C)O4)c12` (single isomer, unassigned) [Example Z695], the pIC50 in assay [1] is 8.33; in the assay with AGS cells (KRAS G12D), 7.44; in assay [2], 7.11.
With `C#Cc1cccc2cc(N)cc(-c3nc4c5c(nc(OC[C@@]67CCCN6CC(F)(F)C7)nc5c3F)N3C[C@H]5CC[C@H](N5)[C@H]3[C@H](C)O4)c12` (single isomer, unassigned) [Example Z735], the pIC50 in assay [1] (Homo sapiens) is 8.25; with AGS cells (KRAS G12D) (Homo sapiens, 120 h), 7.45; in assay [2] (Homo sapiens, ASPC1, 120 h) it was 7.74.
Taken in the same sequence, the figures for `C#Cc1cccc2cc(O)cc(-c3nc4c5c(nc(OC[C@@]67CCCN6C[C@H](F)C7)nc5c3F)N3C[C@H]5CC[C@H](N5)[C@H]3[C@H](CC)O4)c12` [Example Z386, 4-((5S,5aS,6S,9R)-5-Ethyl-1-Fluoro-12-(((2R,7aS)-2-Fluorotetrahydro-1H-Pyrrolizin-7a (5H)-Yl)Methoxy)-5a,6,7,8,9,10-Hexahydro-5H-4-Oxa-3,10a,11,13,14-Pentaaza-6,9-Methanonaphtho[1,8-Ab]Heptalen-2-Yl)-5-Ethynylnaphthalen-2-Ol] were 9.12, 8.62 and 7.83.
Taken in the same sequence, the figures for `C#Cc1c(F)ccc2cccc(-c3nc4c5c(nc(OCC67CC(=C)CN6C[C@H](OC)C7)nc5c3F)N3C[C@H]5CC[C@H](N5)[C@H]3[C@H](C)O4)c12` (stereo partly drawn) [Example Z691, (5S,5aS,6S,9R)-2-(8-Ethynyl-7-Fluoronaphthalen-1-Yl)-1-Fluoro-12-(((2R)-2-Methoxy-6-Methylenetetrahydro-1H-Pyrrolizin-7a (5H)-Yl)Methoxy)-5-Methyl-5a,6,7,8,9,10-Hexahydro-5H-4-Oxa-3,10a,11,13,14-Pentaaza-6,9-Methanonaphtho[1,8-Ab]Heptalene] were 7.85, 7.26 and 7.06.
Take `C#Cc1c(F)ccc2cccc(-c3nc4c5c(nc(OCC67CC(=C)CN6CC6(CC6)C7)nc5c3F)N3C[C@H]5CC[C@H](N5)[C@H]3[C@H](C)O4)c12` (stereo partly drawn) [Example Z599]: the pIC50 in assay [1] was 7.56; with AGS cells (KRAS G12D), 7.97; in assay [2], 7.65.
For the compound `C#Cc1cccc2cc(N)cc(-c3nc4c5c(nc(OCC6(CN7CCC(F)(F)C7)CC6)nc5c3F)N3C[C@H]5CC[C@H](N5)[C@H]3[C@H](C)O4)c12` [Example Z712, 4-((5S,5aS,6S,9R)-12-((1-((3,3-difluoropyrrolidin-1-yl)methyl)cyclopropyl)methoxy)-1-fluoro-5-methyl-5a,6,7,8,9,10-hexahydro-5H-4-oxa-3,10a, 11, 13, 14-pentaaza-6,9-methanonaphtho[1,8-ab]heptalen-2-yl)-5-ethynylnaphthalen-2-amine], the pIC50 in assay [1] (Homo sapiens) is 7.55; with AGS cells (KRAS G12D) (Homo sapiens, 120 h), 7.22; in assay [2] (Homo sapiens, ASPC1, 120 h) it was 7.52.
